Results published in patent US12728119B2, “Pharmaceutical composition for preventing or treating cancer comprising 3-ketoacyl CoA thiolase inhibitor and carnitine acylcarnitine carrier inhibitor” (NATIONAL CANCER CENTER, priority 2020, dated 2026).
Where “and” joins values, the source holds several entries; their conditions need not be identical. Identical values can stand only once.

Legend:
Format in all cases: cell-based
[1] = test system: AsPC-1 pancreatic cancer cells; test: SRB analysis 2; details: 48 hours
Experimental: (§1) The SRB assay was performed as follows: each cell line (100 μl) was seeded into 96-well microtiter plates at densities ranging from 5,000 to 20,000 cells/well depending on the doubling time of each cell line. After cell seeding, microtiter plates were incubated for 24 h before addition of experimental drug. Drugs were prepared at the indicated concentrations and 100 μl was added to each well; The plates were then incubated in a CO2 incubator. Then, cold TCA was added to terminate the assay. Cells were fixed in situ by gentle addition of 50 μl of cold 50% (w/v) TCA (final concentration: 10% TCA) and incubated at 4° C. for 60 min. The supernatant was discarded and the plate was washed 5 times with tap water and then air dried. A solution (100 μl) of 0.4% (w/v) SRB (Sulforhodamine B) in 1% acetic acid was added to each well, and the plate was left at room temperature for 10 minutes. After staining, the plates were air dried after washing 5 times with 1% acetic acid to remove unbound dye. The bound dye was then solubilized with 10 mM trizma base and the absorbance was recorded at 515 nm using an automated plate reader.

[2] = test system: BxPC-3 pancreatic cancer cells; test: SRB analysis 2; details: 48 hours
Experimental: as §1

[3] = test system: MIA PaCa2 pancreatic cancer cells; test: SRB analysis 2; details: MIA PaCa-2, 48 hours
Experimental: as §1

[4] = test system: Panc-1 pancreatic cancer cells; test: SRB analysis 2; details: 48 hours
Experimental: as §1

[5] = test system: SNU-213 pancreatic cancer cells; test: SRB analysis 2; details: SNU213, 48 hours
Experimental: as §1

[6] = test system: SNU-324 pancreatic cancer cells; test: SRB analysis 2; details: SNU324, 48 hours
Experimental: as §1

[7] = test system: SU.86.86 pancreatic cancer cells; test: SRB analysis 2; details: 48 hours
Experimental: as §1

[8] = test system: SW1990 pancreatic cancer cells; test: SRB analysis 2; details: 48 hours
Experimental: as §1

[9] = test system: A375 melanoma cell line; test: SRB analysis 3; details: Paclitaxel 10 nM, 48 hours
Experimental: (§2) Through SRB analysis (n=3), the effect of triple combination treatment of a CAC inhibitor (KN510: omeprazole), ACAA inhibitor (KN713: trimetazidine) and other anticancer drug on cell growth in the cancer cells was analyzed. (see Table 11).
(§3) The SRB assay was performed as follows: each cell line (100 μl) was seeded into 96-well microtiter plates at densities ranging from 5,000 to 40,000 cells/well depending on the doubling time of each cell line. After 24 hours, drug (100 μl per well) was added to each well and the culture was incubated at 37° C. for 48 hours. Cells were then fixed in 50% TCA (50 μl per well) and plates were incubated at 4° C. for a minimum of 1 hour or a maximum of 3 hours. After that, the liquid was removed from the plate, then rinsed 5 times with water and dried for approximately 12-24 hours at room temperature (RT). After the fixed cells were stained with 0.4% SRB (100 μl per well) for 10 minutes at room temperature, the plates were washed 3 times with 1% glacial acetic acid and dried at room temperature for about 12-24 hours. SRB staining was dissolved in 10 mM Trizma base and absorbance was read at 515 nm. The effect of the drug was expressed as GI50 (50% growth inhibition), TGI (total growth inhibition) or LC50 (lethal concentration). GI50 is the maximum concentration at the moment of 50% inhibition of cell proliferation and IC50 is the concentration of the drug that inhibits the enzyme activity in vitro by 50% in this study.

[10] = test system: A549 non-small cell lung cancer (NSCLC) cell line; test: SRB analysis 3; details: Paclitaxel 10 nM, 48 hours
Experimental: as §2, §3

[11] = test system: ACHN renal cancer cell line; test: SRB analysis 3; details: Paclitaxel 10 nM, 48 hours
Experimental: as §2, §3

[12] = test system: AGS gastric cancer cell line; test: SRB analysis 3; details: Paclitaxel 20 nM, 48 hours
Experimental: as §2, §3

[13] = test system: AsPC-1 pancreatic cancer (PDAC) cell line; test: SRB analysis 3; details: Paclitaxel 10 nM, 48 hours
Experimental: as §2, §3

[14] = test system: COLO-205 colon cancer cell line; test: SRB analysis 3; details: Paclitaxel 10 nM, 48 hours
Experimental: as §2, §3

[15] = test system: Caki-1 renal cancer cell line; test: SRB analysis 3; details: Paclitaxel 10 nM, 48 hours
Experimental: as §2, §3

[16] = test system: DU145 prostate cancer cell line; test: SRB analysis 3; details: Paclitaxel 10 nM, 48 hours
Experimental: as §2, §3

[17] = test system: H1975 non-small cell lung cancer (NSCLC) cell line; test: SRB analysis 3; details: Paclitaxel 10 nM, 48 hours
Experimental: as §2, §3

[18] = test system: HCT-116 colon cancer cell line; test: SRB analysis 3; details: Paclitaxel 10 nM, 48 hours
Experimental: as §2, §3

[19] = test system: Huh-7 liver cancer cell line; test: SRB analysis 3; details: Paclitaxel 10 μM, 48 hours
Experimental: as §2, §3

[20] = test system: MCF7 breast cancer cell line; test: SRB analysis 3; details: Paclitaxel 10 μM, 48 hours
Experimental: as §2, §3

[21] = test system: MDA-MB-231 breast cancer cell line; test: SRB analysis 3; details: Paclitaxel 10 μM, 48 hours
Experimental: as §2, §3

[22] = test system: MIA PaCa-2 pancreatic cancer (PDAC) cell line; test: SRB analysis 3; details: Paclitaxel 10 nM, 48 hours
Experimental: as §2, §3

[23] = test system: MKN45 gastric cancer cell line; test: SRB analysis 3; details: MKN-45; Paclitaxel 20 nM; 48 hours
Experimental: as §2, §3

[24] = test system: OVCAR-8 ovarian cancer cell line; test: SRB analysis 3; details: Paclitaxel 10 μM, 48 hours
Experimental: as §2, §3

[25] = test system: PC-3 prostate cancer cell line; test: SRB analysis 3; details: Paclitaxel 10 nM, 48 hours
Experimental: as §2, §3

[26] = test system: SK-OV-3 ovarian cancer cell line; test: SRB analysis 3; details: Paclitaxel 10 μM, 48 hours
Experimental: as §2, §3

[27] = test system: SK-hep-1 liver cancer cell line; test: SRB analysis 3; details: Paclitaxel 10 μM, 48 hours
Experimental: as §2, §3

[28] = test system: UACC62 melanoma cell line; test: SRB analysis 3; details: Paclitaxel 10 nM, 48 hours
Experimental: as §2, §3

[29] = test system: T87G glioblastoma (GBM) cell line; test: SRB analysis 3; details: Paclitaxel 10 nM, 48 hours
Experimental: as §3, with “Through SRB analysis (n=3), the effect of triple combination treatment of a CAC inhibitor ([…] inhibitor (KN713: trimetazidine) and other anticancer drug on cell growth in the cancer cells was analyzed. (see Table 11). The” for “The”, “nm.” for “nm. The effect of the drug was expressed as GI50 (50% growth inhibition), TGI (total growth inhibition) or LC50 (lethal concentration). GI50 is the maximum concentration at the moment of 50% inhibition of cell proliferation and IC50 is the concentration of the drug that inhibits the enzyme activity in vitro by 50% in this study.”

[30] = test system: U87MG glioblastoma (GBM) cell line; test: SRB analysis 3; details: Paclitaxel 10 nM, 48 hours
Experimental: as §3, with “Through SRB analysis (n=3), the effect of triple combination treatment of a CAC inhibitor ([…] inhibitor (KN713: trimetazidine) and other anticancer drug on cell growth in the cancer cells was analyzed. (see Table 11). The” for “The”, “nm.” for “nm. The effect of the drug was expressed as GI50 (50% growth inhibition), TGI (total growth inhibition) or LC50 (lethal concentration). GI50 is the maximum concentration at the moment of 50% inhibition of cell proliferation and IC50 is the concentration of the drug that inhibits the enzyme activity in vitro by 50% in this study.”

[31] = test system: cancer cells; test: SRB analysis 3, triple combination, summary over cancer panels
Experimental: as §2, §3

With `COc1ccnc(C[S+]([O-])c2nc3ccc(OC(F)F)cc3[nH]2)c1OC` (stereo not shown) [KN512, pantoprazole] the “degree of cell growth based on the control (100%)” value (“degree … (100%)” for short) ([1]; KN512 100 μM) was 64.75% and 71.27%, the “degree … (100%)” value ([1]; KN512 200 μM) was 23.37% and 25.43% and the “degree … (100%)” value ([2]; KN512 100 μM) was 34.14% and 49.52%. For the same compound, the “degree … (100%)” value ([2]; KN512 200 μM) was −10.63% and −6.75%, the “degree … (100%)” value ([3]; KN512 100 μM) was 62.60% and 66.74% and the “degree … (100%)” value ([3]; KN512 200 μM) was 5.82% and 1.98%. The “degree … (100%)” value ([4]; KN512 100 μM) was 54.90% and 57.01%, the “degree … (100%)” value ([4]; KN512 200 μM) was 6.03% and 12.81% and the “degree … (100%)” value ([5]; KN512 100 μM) was 66.09% and 59.49%. The “degree … (100%)” value ([5]; KN512 200 μM) was 36.60% and 51.18%, the “degree … (100%)” value ([6]; KN512 100 μM) was 61.20% and 74.13% and the “degree … (100%)” value ([6]; KN512 200 μM) was 23.82% and 21.77%. The “degree … (100%)” value ([7]; KN512 100 μM) was 59.26% and 70.59%, the “degree … (100%)” value ([7]; KN512 200 μM) was 19.69% and 26.47% and the “degree … (100%)” value ([8]; KN512 100 μM) was 70.30% and 73.00%. For the same compound, the “degree … (100%)” value ([8]; KN512 200 μM) was 25.58% and 41.93%.
`CC(=O)O[C@H]1C(=O)[C@@]2(C)[C@H]([C@H](OC(=O)c3ccccc3)[C@]3(O)C[C@H](OC(=O)[C@H](O)[C@@H](NC(=O)c4ccccc4)c4ccccc4)C(C)=C1C3(C)C)[C@]1(OC(C)=O)CO[C@@H]1C[C@@H]2O` [Paclitaxel] was tested, and the “cell growth (Control = 100)” value [9] was 40.20, the “cell growth (Control = 100)” value [10] was 17.6 and the “cell growth (Control = 100)” value [11] was 105.2409. For the same compound, the “cell growth (Control = 100)” value [12] was 20.3903, the “cell growth (Control = 100)” value [13] was 41.94 and the “cell growth (Control = 100)” value [14] was −8.628. The “cell growth (Control = 100)” value [15] was 128.124, the “cell growth (Control = 100)” value [16] was 46.381 and the “cell growth (Control = 100)” value [17] was 45.06. For the same compound, the “cell growth (Control = 100)” value [18] was 15.07, the “cell growth (Control = 100)” value [19] was 63.01 and the “cell growth (Control = 100)” value [20] was 17.28. For the same compound, the “cell growth (Control = 100)” value [21] was 70.48, the “cell growth (Control = 100)” value [22] was 16.4 and the “cell growth (Control = 100)” value [23] was 8.846. For the same compound, the “cell growth (Control = 100)” value [24] was 76.61, the “cell growth (Control = 100)” value [25] was 47.85 and the “cell growth (Control = 100)” value [26] was 62.41. For the same compound, the “cell growth (Control = 100)” value [27] was 78.76, the “cell growth (Control = 100)” value [28] was 65.90 and the “cell growth (Control = 100)” value [29] was 56.70. For the same compound, the “cell growth (Control = 100)” value [30] was 28.87, the “Positive/Negative (triple combination of KN510, KN713 and the listed anticancer drug)” value (“Positive/Negative” for short) ([31]; Breast Cancer, BT-549, MDA MB 231) was “Positive” and the “Positive/Negative” value ([31]; Colon Cancer, HT-29, COLO-205) was “Positive”. For the same compound, the “Positive/Negative” value ([31]; GBM, U87MG, T87G) was “Positive”, the “Positive/Negative” value ([31]; Liver Cancer, SNU-449, Huh-7) was “Positive” and the “Positive/Negative” value ([31]; NSCLC, A549, H522) was “Positive”. For the same compound, the “Positive/Negative” value ([31]; Ovarian Cancer, SK-OV-3, OVCAR-3) was “Positive”, the “Positive/Negative” value ([31]; PDAC, MIA PaCa-2, PANC-1) was “Positive” and the “Positive/Negative” value ([31]; Prostate Cancer, PC-3, DU-145) was “Positive”. The “Positive/Negative” value ([31]; Renal cell carcinoma, ACHN, CAKI-1) was “negative”, the “Positive/Negative” value ([31]; Stomach Cancer, MKN-28, AGS) was “Positive” and the “Positive/Negative” value ([31]; melanoma, UACC62, A375) was “Positive”.
